Test [1] has as its target T1, fructose-1,6-bisphosphatase (LmFBPase) (Leishmania major, UniProt O97193).
T1 sequence (O97193 1-351): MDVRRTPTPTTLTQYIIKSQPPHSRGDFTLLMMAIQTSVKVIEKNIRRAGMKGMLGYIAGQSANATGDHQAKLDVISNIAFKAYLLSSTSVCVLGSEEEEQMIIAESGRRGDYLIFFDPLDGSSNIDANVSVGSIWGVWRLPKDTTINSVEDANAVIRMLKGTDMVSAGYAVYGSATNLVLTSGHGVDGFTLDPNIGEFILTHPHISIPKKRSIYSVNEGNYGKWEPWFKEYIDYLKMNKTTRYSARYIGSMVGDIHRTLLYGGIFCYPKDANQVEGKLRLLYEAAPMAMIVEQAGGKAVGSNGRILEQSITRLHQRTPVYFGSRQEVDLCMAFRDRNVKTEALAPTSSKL
The test is described as follows: co-crystal structure ([…] Å) with F6P; coupled enzyme assay Ki. The class given is biochemical. Also noted: gene FBP; C-terminal His6-tagged LmFBPase, homotetramer.

The target in test [2] is T1, fructose-1,6-bisphosphatase (LmFBPase). The test is described as follows: co-crystal structure ([…] Å) with AMP; thermal shift. It counts as binding. On the set-up: gene FBP; C-terminal His6-tagged LmFBPase, homotetramer.
For test [3] the target is unchanged. Also noted: gene FBP.
In test [4] the target is T2, fructose-1,6-bisphosphatase (LmFBPase) (Leishmania major, UniProt O97193).
T2 construct: gene FBP; C-terminal His6-tagged LmFBPase
Description: PGI/G6PDH coupled enzyme activity assay. It counts as biochemical.

pKi: −log10 of the molar value.

Take `Nc1ncnc2c1ncn2[C@@H]1O[C@H](COP(=O)(O)O)[C@@H](O)[C@H]1O` [AMP]: the pKi in test [1] is 4.20.

Regarding `O=P(O)(O)OC[C@H]1OC(O)(CO)[C@@H](O)[C@@H]1O` (stereo partly shown) [fructose 6-phosphate], in test [2], the “co-crystal structure (2.62 Å) with AMP; thermal shift” value is on record as “The catalytic product F6P was found in each of the active sites of the four subunits”.

In the case of `O=P(O)(O)O` [phosphate], the “co-crystal structure (2.8 Å) with Mn2+” value in test [3] is “a catalytic product Pi and manganese atoms were found in each active site”.

Take `O=P(O)(O)OC[C@H]1O[C@@](CO)(OP(=O)(O)O)[C@@H](O)[C@@H]1O` [Fructose 2,6-bisphosphate]: the negative-log Ki (pKi) in test [4] is 5.72.

For orientation: pKi means the Ki on a negative log10 scale, so that one unit is a factor of ten. The low end stands for a large Ki, the high end for a small Ki.

The record behind these values is paper PMC5639204, “Structures of Leishmania Fructose-1,6-Bisphosphatase Reveal Species-Specific Differences in the Mechanism of Allosteric Inhibition” (Journal of Molecular Biology, 2017).
